Each structure is given as a SMILES string. Calls of active or inactive are those of the source. No cut-off for these calls is given here.

In general, IC50 refers to the midpoint of a concentration-inhibition curve.

For series [1], the system named is HepG2. Kind of series: Growth inhibition of human HepG2 cells after 48 hrs by MTT assay. It is filed as functional, cell-based. The conditions noted are these: HepG2, 48 h.
Series [2] deals with HCT-116. Kind of series: Growth inhibition of human HCT116 cells after 48 hrs by MTT assay. It is filed as functional, cell-based. As to conditions: HCT-116, 48 h. On the technique in general: Tetrazolium assays rely on reduction of a dye to a coloured formazan, in cell work by metabolically active cells.
Series [3] has as its system SMMC-7721. Kind of series: Growth inhibition of human SMMC7721 cells after 48 hrs by MTT assay. It is filed as functional, cell-based. As to conditions: SMMC-7721, 48 h.
Series [4] relates to K562. Kind of series: Growth inhibition of human K562 cells after 48 hrs by MTT assay. It counts as functional, cell-based. As to conditions: K562, 48 h.
Series [5] concerns Mus musculus. Kind of series: Toxicity in Balb/c mouse implanted with mouse CT26 cells assessed as changes in body weight at 5 mg/kg, iv for 7 consecutive days starting from day 8 post tumor implantation. It is filed as organism-based. As to conditions: in vivo.
The test system of series [6] is CT26. As to the kind of experiment: Antimigratory activity against mouse CT26 cells at 10 uM after 24 hrs by crystal violet staining based transwell assay. It counts as functional, cell-based.
For series [7], the system named is CT26. As to the kind of experiment: Antimetastatic activity against mouse CT26 cells implanted in Balb/c mouse assessed as inhibition of pulmonary metastasis nodules at 5 mg/kg, iv for 7 consecutive days starting from day 8 post tumor implantation measured on day 15 post tumor implantation relative to control. It counts as functional.
The test system of series [8] is HCT-116. Kind of series: Induction of apoptosis in human HCT116 cells assessed as necrotic cells at 10 uM after 24 hrs by annexin V-FITC/propidium iodide staining based flow cytometry (reference value: 3.9%). It is filed as functional. (In general: Flow cytometry measures light scatter and fluorescence of single cells or particles in a stream.)
For series [9], the system named is CT26. Kind of series: Induction of apoptosis in mouse CT26 cells assessed as late apoptotic cells at 10 uM after 24 hrs by annexin V-FITC/propidium iodide staining based flow cytometry (reference value: 2.26%). It counts as functional.
Series [10] relates to HCT-116. Kind of series: Antimigratory activity against human HCT116 cells at 10 uM after 24 hrs by crystal violet staining based transwell assay. It is filed as functional, cell-based.
For series [11], the system named is HCT-116. As to the kind of experiment: Growth inhibition of human HCT116 cells after 24 hrs by MTT assay. It counts as functional, cell-based.
Series [12] relates to CT26. As to the kind of experiment: Induction of apoptosis in mouse CT26 cells assessed as early apoptotic cells at 10 uM after 24 hrs by annexin V-FITC/propidium iodide staining based flow cytometry (reference value: 3.91%). It counts as functional.
For series [13], the system named is CT26. Kind of series: Induction of apoptosis in mouse CT26 cells assessed as necrotic cells at 10 uM after 24 hrs by annexin V-FITC/propidium iodide staining based flow cytometry (reference value: 4.36%). It is filed as functional.
In series [14] the test system is HCT-116. Kind of series: Induction of apoptosis in human HCT116 cells assessed as late apoptotic cells at 10 uM after 24 hrs by annexin V-FITC/propidium iodide staining based flow cytometry (reference value: 2.03%). It is filed as functional.
Series [15] concerns CT26. Kind of series: Induction of apoptosis in mouse CT26 cells assessed as live cells at 10 uM after 24 hrs by annexin V-FITC/propidium iodide staining based flow cytometry (reference value: 89.47%). It counts as functional.
In series [16] the test system is Mus musculus. As to the kind of experiment: Toxicity in Balb/c mouse implanted with mouse CT26 cells assessed as changes in body weight at 5 mg/kg, iv for 14 consecutive days starting from day 8 post tumor implantation. It counts as organism-based. As to conditions: in vivo.
Series [17] relates to CT26. As to the kind of experiment: Growth inhibition of mouse CT26 cells after 24 hrs by MTT assay. It is filed as functional, cell-based.
Series [18] deals with HCT-116. As to the kind of experiment: Downregulation of beta-catenin protein expression in human HCT116 cells at 10 uM after 24 hrs by Western blot method. It is filed as functional, cell-based. In general terms: In western blotting, separated proteins are transferred to a membrane and probed.
For series [19], the system named is HCT-116. Kind of series: Induction of apoptosis in human HCT116 cells assessed as early apoptotic cells at 10 uM after 24 hrs by annexin V-FITC/propidium iodide staining based flow cytometry (reference value: 4.1%). It counts as functional.
The subject of series [20] is HCT-116. As to the kind of experiment: Induction of apoptosis in human HCT116 cells assessed as live cells at 10 uM after 24 hrs by annexin V-FITC/propidium iodide staining based flow cytometry (reference value: 89.97%). It counts as functional.
Series [21] has as its system CT26. As to the kind of experiment: Antitumor activity against mouse CT26 cells implanted in Balb/c mouse assessed as solid tumor growth inhibition at 5 mg/kg, iv for 14 consecutive days measured on day 15 relative to control. It is filed as functional. As to conditions: 360 h, read-out: TGI.
The test system of series [22] is HCT-116. As to the kind of experiment: Downregulation of MMP2 protein expression in human HCT116 cells at 10 uM after 24 hrs by Western blot method. It is filed as functional, cell-based.

For `NCCCNCCCNCCCN1C(=O)c2cccc3cccc1c23`, the IC50 in series [1] came out at 14.6 µM; in series [2], 12 µM; in series [3], 19.4 µM; in series [4], 26.1 µM.
Taken in the same sequence, the figures for `NCCCNCCCCNCCCN1C(=O)c2cccc3cccc1c23` were 25.4 µM, 11.1 µM, 26.1 µM and 28.7 µM.
The matching figures for `NCCCCNCCCCN1C(=O)c2cccc3cccc1c23`: over 50 µM, over 50 µM, 43.9 µM and over 50 µM.
With `CN(C)CCN1C(=O)c2cccc3cc(N)cc(c23)C1=O` [AMONAFIDE], the 50% inhibitory concentration (IC50) in series [1] is 11.7 µM; in series [2], 7.18 µM; in series [3], 10.3 µM; in series [11] (HCT-116, 24 h) it was 8.55 µM; in [4] it was 20.1 µM; in series [17] (CT26, 24 h) it was 11.7 µM. Further, the Activity result in series [5] is reported as “Non-Toxic”; in series [8] it was 7.6%; in [9], 20.3%; in series [12] it was 27.2%; in series [13] it was 3.92%; in series [14], 36.9%. Further, the Activity is reported as 48.49% in series [15], “Non-Toxic” in [16], 14.9% in series [19] and 40.53% in series [20]. Besides, the outcome in series [6], in [10], in series [18] and in series [22] was Active. Besides, the inhibition in vivo at 5 mg/kg in [7] was found to be 66%; in series [21] it was 20%. For the same compound, the “growth inhibition (GI)” value in series [11] and in series [17] was “Dose-dependent effect” in each case.
For `CCCCN1C(=O)c2cccc3c(NC(=O)CNCCCCN)ccc1c23`, the IC50 in [1], in series [2], in [3] and in [4] was over 50 µM in each case.
Take `CCCCN1C(=O)c2cccc3c(CNCCCNCCCN)ccc1c23`: the IC50 worked out at 3.27 µM in series [1], 28.3 µM in series [2], 5.59 µM in [3] and 23.5 µM in series [4].
On to `CCCCN1C(=O)c2cccc3c(NC(=O)CNCCCNCCCN)ccc1c23`, for which the IC50 in series [1], in series [2], in [3] and in series [4] was over 50 µM each time.
`CCCCN1C(=O)c2cccc3c(NC(=O)CNCCCNCCCNCCCN)ccc1c23`: the IC50 in series [1], in [2], in series [3] and in [4] was over 50 µM in each case.
As for `CCCCN1C(=O)c2cccc3c(NC(=O)CNCCCCNCCCCNCCCCN)ccc1c23`, the IC50 is 16.1 µM in [1], over 50 µM in series [2], 18 µM in series [3] and over 50 µM in series [4].
For the compound `CCCCN1C(=O)c2cccc3c(NC(=O)CNCCCCNCCCCN)ccc1c23`, the IC50 in [1] was 21.9 µM; in series [2] it was over 50 µM; in series [3], 23.3 µM; in [4] it was over 50 µM.
With `CCCCN1C(=O)c2cccc3c(CNCCCCN)ccc1c23`, the IC50 was 10.1 µM in series [1], 16.9 µM in series [2], 25.4 µM in [3] and over 50 µM in [4].
The matching figures for `NCCCNCCCN1C(=O)c2cccc3cccc1c23`: over 50 µM, 16.9 µM, 19.4 µM and 11.5 µM.
